The source of these data is US20230159510A1, “NOVEL PRMT5 INHIBITORS” (AMGEN INC., priority 2020, published 2023).

Experiment [1] has as its system HCT116 MTAP null cells. Kind of experiment: HCT116 proliferation assay, MTAP null cells (CellTiter-Glo, 6 days). Format: cell-based. Particulars: 144 h, read-out: Protif_ HCT116-MTAP null IC50. In a few lines:
(§1)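 Readout is CellTiter-Glo luminescence after 6 days of drug exposure at 37 °C. Compounds tested as 8–9 point, 3-fold dilution series starting at 1 or 10 µM, versus DMSO only, on cells in RPMI 1640 with 10% FBS.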

The test system of experiment [2] is HCT116 WT cells. Put plainly: HCT116 proliferation assay, WT cells (CellTiter-Glo, 6 days). Format: cell-based. The note with it: Homo sapiens, HCT-116, 144 h, read-out: Prolif_HCT116-WT IC50. In a few lines: as §1
The target of experiment [3] is PRMT5/MEP50 (Homo sapiens, UniProt O14744). Kind of experiment: MTase-Glo methyl transferase assay, Method A (Histone H4 peptide, 1 µM MTA, 24 h pre-incubation). The note with it: read-out: PRMT5 MTase Glo Ki (nM, Meth. A). On the set-up: made in house. Format: biochemical. In a few lines:
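Luminescent SAH detection (MTase-Glo) after a 2 h room-temperature methylation of 1 µM biotinylated H4 (1-21) peptide by 10 nM PRMT5/MEP50 with 5 µM SAM, in 50 mM Tris pH 8.0.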

The structures appear in SMILES notation. Read-outs that look alike come from different tables or passages of the source. Some results are limits rather than exact numbers.

PRMT5/MEP50, sequence (O14744 whole entry): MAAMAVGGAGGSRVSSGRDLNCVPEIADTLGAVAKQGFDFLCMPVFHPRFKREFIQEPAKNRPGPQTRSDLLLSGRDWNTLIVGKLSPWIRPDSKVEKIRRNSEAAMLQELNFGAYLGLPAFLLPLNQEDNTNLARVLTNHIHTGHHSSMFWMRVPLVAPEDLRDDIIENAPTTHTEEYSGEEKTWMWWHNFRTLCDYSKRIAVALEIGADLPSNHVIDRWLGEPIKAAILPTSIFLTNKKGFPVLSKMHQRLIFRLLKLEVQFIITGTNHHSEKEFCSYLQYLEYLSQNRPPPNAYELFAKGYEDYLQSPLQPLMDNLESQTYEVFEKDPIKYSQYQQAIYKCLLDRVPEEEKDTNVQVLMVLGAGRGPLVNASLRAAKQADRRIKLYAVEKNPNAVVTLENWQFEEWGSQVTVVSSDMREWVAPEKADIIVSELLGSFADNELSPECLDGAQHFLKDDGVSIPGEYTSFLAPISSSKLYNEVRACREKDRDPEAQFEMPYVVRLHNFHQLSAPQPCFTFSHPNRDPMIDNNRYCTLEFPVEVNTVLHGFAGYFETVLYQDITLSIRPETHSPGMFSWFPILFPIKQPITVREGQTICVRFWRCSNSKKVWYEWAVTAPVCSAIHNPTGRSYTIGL
PRMT5/MEP50, sequence (Q9BQA1 whole entry partner): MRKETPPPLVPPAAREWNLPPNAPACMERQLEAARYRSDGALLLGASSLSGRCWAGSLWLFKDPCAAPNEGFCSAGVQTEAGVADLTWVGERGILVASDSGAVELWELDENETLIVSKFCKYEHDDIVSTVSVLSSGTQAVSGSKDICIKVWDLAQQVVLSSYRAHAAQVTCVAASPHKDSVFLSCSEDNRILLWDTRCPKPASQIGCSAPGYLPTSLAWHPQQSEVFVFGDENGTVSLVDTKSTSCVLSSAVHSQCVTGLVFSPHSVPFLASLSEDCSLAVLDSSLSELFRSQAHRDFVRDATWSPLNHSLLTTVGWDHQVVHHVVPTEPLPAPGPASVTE

`Cc1cc2cc(C(=O)N(Cc3ccc(C4=CCOCC4)cn3)[C@H](C)c3ncccn3)ccc2nc1N` [Example 557, (R)-2-amino-N-((5-(3,6-dihydro-2H-pyran-4-yl)pyridin-2-yl)methyl)-3-methyl-N-(1-(pyrimidin-2-yl)ethyl)quinoline-6-carboxamide]: the IC50 in experiment [1] (HCT116-MTAP null) is 42 nM; in experiment [2], 1730 nM. Also, in experiment [3], the inhibitory constant (Ki) worked out at 0.18 nM.

As to `Cc1cc(N)nc2ccc(C(=O)N(Cc3ccc(C(F)(F)F)cn3)[C@H](C)c3ncccn3)cc12` [Example 432, 2-amino-4-methyl-N-((1R)-1-(2-pyrimidinyl)ethyl)-N-((5-(trifluoromethyl)-2-pyridinyl)methyl)-6-quinolinecarboxamide], the half-maximal inhibitory concentration (IC50) came to 24 nM in experiment [1] (HCT116-MTAP null) and 110 nM in experiment [2]. Moreover, the Ki in experiment [3] is 0.57 nM.

For the compound `Cc1cc2cc(C(=O)N(Cc3cnc4ccccc4c3)[C@H](C)c3ncccn3)ccc2nc1N` (single isomer, unassigned) [Example 447], the figures for the 50% inhibitory concentration (IC50) in experiment [1] (HCT116-MTAP null) and in experiment [2] were 673 nM and greater than 10000 nM, respectively. Also, the Ki in experiment [3] came to 5.51 nM.

For `COC[C@@H](c1ccccn1)N(Cc1ccc(C(F)(F)F)cn1)C(=O)c1ccc2nc(N)c(C)cc2c1` (single isomer, unassigned) [Example 529], the figures for the half-maximal inhibitory concentration (IC50) in experiment [1] (HCT116-MTAP null) and in experiment [2] were 258 nM and 4240 nM, respectively. The inhibition constant Ki in experiment [3] was 1.69 nM.

Turning to `Cc1cc2cc(C(=O)N(Cc3ccc(C(F)(F)F)cn3)[C@@H](C)c3ncccc3F)ccc2nc1N` [Example 386, 2-amino-N-((1S)-1-(3-fluoro-2-pyridinyl)ethyl)-3-methyl-N-((5-(trifluoromethyl)-2-pyridinyl)methyl)-6-quinolinecarboxamide], the IC50 in experiment [1] was found to be 241 nM; in experiment [2], 3830 nM. Besides, the Ki in experiment [3] turned out to be 3.46 nM.

In the case of `Cc1cc2cc(C(=O)N(Cc3ccc(Cl)c(C)n3)[C@H](C)c3ncccn3)ccc2nc1N` (single isomer, unassigned) [Example 468], the IC50 in experiment [1] (HCT116-MTAP null) was 34 nM; in experiment [2], 853 nM. In addition, the inhibition constant (Ki) in experiment [3] is less than 0.1 nM.

Regarding `Cc1cc2cc(C(=O)N(Cc3ccc(C(N)=O)cn3)[C@H](C)c3ccccc3F)ccc2nc1N` [Example 550, 2-amino-N-((5-carbamoyl-2-pyridinyl)methyl)-N-((1R)-1-(2-fluorophenyl)ethyl)-3-methyl-6-quinolinecarboxamide], the half-inhibitory concentration (IC50) turned out to be 199 nM in experiment [1] (HCT116-MTAP null) and 5930 nM in experiment [2]. Further, the Ki in experiment [3] is 0.14 nM.

Regarding `Cc1cc2cc(C(=O)N(Cc3ccc(OC(F)F)cn3)[C@H](C)c3ncccn3)ccc2nc1N` (single isomer, unassigned) [Example 491], the 50% inhibitory concentration (IC50) in experiment [1] (HCT116-MTAP null) was found to be 61 nM; in experiment [2], 1270 nM. Besides, the Ki in experiment [3] was 0.1 nM.

In the case of `Cc1cc2cc(C(=O)N(Cc3ccc(C(F)(F)F)cn3)[C@@H]3CCCN(C4CC4)C3=O)ccc2nc1N` (single isomer, unassigned) [Example 462], the IC50 in experiment [1] (HCT116-MTAP null) was 349 nM; in experiment [2], greater than 10000 nM. Besides, in experiment [3], the Ki was 0.29 nM.

In the case of `Cc1cc2cc(C(=O)N(Cc3ccc(C(F)(F)F)cn3)CC(C)C)c(Cl)cc2nc1N` [Example 436, 2-amino-7-chloro-3-methyl-N-(2-methylpropyl)-N-((5-(trifluoromethyl)-2-pyridinyl)methyl)-6-quinolinecarboxamide], the results for the IC50 in experiment [1] (HCT116-MTAP null) and in experiment [2] were 198 nM and 3720 nM, respectively. Moreover, the inhibition constant (Ki) in experiment [3] was found to be 0.14 nM.

Turning to `Cc1cc2cc(C(=O)N(Cc3ccc(C(F)(F)F)nn3)[C@H](C)c3ncccn3)ccc2nc1N` (single isomer, unassigned) [Example 488], the IC50 was found to be 35 nM in experiment [1] (HCT116-MTAP null) and 1280 nM in experiment [2]. The inhibition constant (Ki) in experiment [3] worked out at 0.1 nM.

Consider `Cc1cc2cc(C(=O)N(Cc3ccc(C(F)(F)F)cn3)Cc3cnc(N)s3)ccc2nc1N` [Example 305, 2-amino-N-((2-amino-1,3-thiazol-5-yl)methyl)-3-methyl-N-((5-(trifluoromethyl)-2-pyridinyl)methyl)-6-quinolinecarboxamide], for which the figures for the IC50 in experiment [1] (HCT116-MTAP null) and in experiment [2] were 268 nM and 8770 nM, respectively. Moreover, the inhibition constant Ki in experiment [3] came to 15.1 nM.

Regarding `CC(=O)N1CC=C(c2ccc(CN(C(=O)c3ccc4nc(N)c(C)cc4c3)[C@H](C)c3ncccn3)nc2)CC1` [Example 548, N-((1′-acetyl-1’,2’,3’,6′-tetrahydro[3,4′-bipyridin]-6-yl)methyl)-2-amino-3-methyl-N-((1R)-1-(2-pyrimidinyl)ethyl)-6-quinolinecarboxamide], the IC50 in experiment [1] (HCT116-MTAP null) worked out at 88 nM; in experiment [2], 2080 nM. Moreover, in experiment [3], the Ki worked out at 0.1 nM.

Turning to `Cc1cc2cc(C(=O)N(Cc3ccc(C(F)(F)F)cn3)[C@H](C)c3ncc(F)cn3)ccc2nc1N` (single isomer, unassigned) [Example 528], the 50% inhibitory concentration (IC50) in experiment [1] (HCT116-MTAP null) stood at 58 nM; in experiment [2], 899 nM. In experiment [3], the inhibition constant Ki turned out to be 0.14 nM.

Take `Cc1cc2cc(C(=O)N(Cc3ccc(N4CC(F)(F)C4)cn3)[C@H](C)c3ncccn3)ccc2nc1N` [Example 359, 2-amino-N-((5-(3,3-difluoro-1-azetidinyl)-2-pyridinyl)methyl)-3-methyl-N-((1R)-1-(2-pyrimidinyl)ethyl)-6-quinolinecarboxamide]: the IC50 in experiment [1] (HCT116-MTAP null) amounted to 208 nM; in experiment [2], 4740 nM. Further, the Ki in experiment [3] is less than 0.1 nM.

With `COC(=O)c1ccc(CN(Cc2ncccc2F)C(=O)c2ccc3nc(N)c(C)cc3c2)nc1` [Example 331, methyl 6-((((2-amino-3-methyl-6-quinolinyl)carbonyl)((3-fluoro-2-pyridinyl)methyl)amino)methyl)-3-pyridinecarboxylate], the IC50 in experiment [1] (HCT116-MTAP null) was 490 nM; in experiment [2], greater than 10000 nM. Also, the Ki in experiment [3] was 0.13 nM.

For the compound `Cc1cc2cc(C(=O)N(Cc3ncccc3F)Cc3ncc(F)cc3F)ccc2nc1N` [Example 387, 2-amino-N-((3,5-difluoro-2-pyridinyl)methyl)-N-((3-fluoro-2-pyridinyl)methyl)-3-methyl-6-quinolinecarboxamide], the half-maximal inhibitory concentration (IC50) was 884 nM in experiment [1] (HCT116-MTAP null) and greater than 10000 nM in experiment [2]. The Ki in experiment [3] amounted to 1.67 nM.

For `Nc1nc2ccc(C(=O)N(Cc3ccc(C(F)(F)F)cn3)Cc3ncccn3)cc2cc1Br` [Example 317, 2-amino-3-bromo-N-(2-pyrimidinylmethyl)-N-((5-(trifluoromethyl)-2-pyridinyl)methyl)-6-quinolinecarboxamide], the IC50 in experiment [1] (HCT116-MTAP null) is 612 nM; in experiment [2] it was greater than 10000 nM. Moreover, the inhibition constant (Ki) in experiment [3] was 0.56 nM.

`Cc1cc2cc(C(=O)N(Cc3ccc(C(F)(F)F)cn3)[C@@H]3COCC[C@@H]3O)ccc2nc1N` (single isomer, unassigned) [Example 471]: the IC50 in experiment [1] (HCT116-MTAP null) stood at 101 nM; in experiment [2] it was 3110 nM. Also, the Ki in experiment [3] was 0.11 nM.

Turning to `COC[C@@H](C)N(Cc1ccc(C(F)(F)F)cn1)C(=O)c1ccc2nc(N)c(C)cc2c1` [Example 507, 2-amino-N-((2R)-1-methoxy-2-propanyl)-3-methyl-N-((5-(trifluoromethyl)-2-pyridinyl)methyl)-6-quinolinecarboxamide], the IC50 in experiment [1] (HCT116-MTAP null) amounted to 46 nM; in experiment [2], 913 nM. Besides, in experiment [3], the Ki came out at 0.15 nM.

For `C[C@H](c1ncccn1)N(Cc1ccc(C#N)cn1)C(=O)c1cnc2nc(N)c(Br)cc2c1` [Example 406, 7-amino-6-bromo-N-((5-cyano-2-pyridinyl)methyl)-N-((1R)-1-(2-pyrimidinyl)ethyl)-1,8-naphthyridine-3-carboxamide], the figures for the IC50 in experiment [1] (HCT116-MTAP null) and in experiment [2] were 682 nM and greater than 10000 nM, respectively. The Ki in experiment [3] was 0.47 nM.

Consider `Cc1cc2cc(C(=O)N(Cc3ccc(C(F)(F)F)cn3)[C@H](C)c3ncn(C)n3)c(F)cc2nc1N` (single isomer, unassigned) [Example 497], for which the 50% inhibitory concentration (IC50) in experiment [1] (HCT116-MTAP null) was found to be 35 nM; in experiment [2], 462 nM. The inhibitory constant (Ki) in experiment [3] amounted to 0.19 nM.

With `Cc1cc2cc(C(=O)N(Cc3ccncc3)Cc3ccc(C(F)(F)F)cn3)ccc2nc1N` [Example 342, 2-amino-3-methyl-N-(4-pyridinylmethyl)-N-((5-(trifluoromethyl)-2-pyridinyl)methyl)-6-quinolinecarboxamide], the IC50 in experiment [1] (HCT116-MTAP null) is 730 nM; in experiment [2] it was greater than 10000 nM. In experiment [3], the Ki was determined as 2.72 nM.

Regarding `Cc1cc2cc(C(=O)N(Cc3ncc(C(F)(F)F)cc3F)[C@H](C)c3ncccc3F)ccc2nc1N` [Example 391, 2-amino-N-((1R)-1-(3-fluoro-2-pyridinyl)ethyl)-N-((3-fluoro-5-(trifluoromethyl)-2-pyridinyl)methyl)-3-methyl-6-quinolinecarboxamide], the half-inhibitory concentration (IC50) in experiment [1] (HCT116-MTAP null) was 165 nM; in experiment [2], 4800 nM. Besides, in experiment [3], the Ki was found to be 0.01 nM.

Take `Cc1cc2cc(C(=O)N(Cc3ccc(C(F)(F)F)cn3)[C@H](C)c3ncccc3F)ccc2nc1N` [Example 385, 2-amino-N-((1R)-1-(3-fluoro-2-pyridinyl)ethyl)-3-methyl-N-((5-(trifluoromethyl)-2-pyridinyl)methyl)-6-quinolinecarboxamide]: the IC50 in experiment [1] was 55 nM; in experiment [2], 1310 nM. Further, in experiment [3], the Ki came out at 0.08 nM.

Turning to `COC[C@H](c1ccccn1)N(Cc1ccc(C(F)(F)F)cn1)C(=O)c1ccc2nc(N)c(C)cc2c1` (single isomer, unassigned) [Example 530], the IC50 in experiment [1] (HCT116-MTAP null) came to 108 nM; in experiment [2] it was 1710 nM. Besides, in experiment [3], the Ki amounted to 0.18 nM.
